The values below are quoted from earlier work in US20240350678A1, “SYSTEMS AND METHODS FOR GENERATION OF HYPERPOLARIZED MATERIALS” (NVISION IMAGING TECHNOLOGIES GMBH, priority 2021, published 2024).

Like-named read-outs stand apart in the source and are kept apart here.

In the case of `CC(=O)O` [acetic acid], the “maximal mole fraction of acetic acid in n-heptane” value by setting is: (at 14.8° C.) 0.935; (at −29.2° C.) 0.02.
